How the values were obtained:
[1] = target: T1, α2β3γ2 GABAARs (Homo sapiens, UniProt P18507+P28472+P47869); test: Potentiation of GABA-evoked currents, whole-cell patch-clamp in HEK293 cells transiently expressing recombinant GABAARs; assay type: cell-based
T1 construct: Shanghai Genechem Co.,Ltd (γ2 plasmid); host or cells: HEK293
Method: (§1) The affinities of drugs for α1, α2, α3 and α5 subunits were studied in the HEK293 cells (from FuHeng Biology, Shanghai, China) transiently expressing recombinant GABAARs (α1β2γ2, α2β3γ2, α3β3γ2 and α5β2γ2) as described previously. Briefly, the HEK293 cells were cultured in MEM medium supplemented with 10% FBS (fetal bovine serum, Gibico), 1% L-glutamine (Gibco) and 1% mycillin (Gibco). Before transfection, the cells were subcultured onto a 3.5cm dish at the ratio of 1:2. Then, the plasmids of α1/α2/α3/α5 (Origene), β2/β3 (Origene) and γ2 (Shanghai Genechem Co.,Ltd ) (5μg total DNA, ratio 1:1:2) were transfected using Fugene®HD transfection reagent (Promega). The γ2 subunit contained GFP from IRES (internal ribosomal entry site) and was used as a marker of the successful transfection. Cells were used for electrophysiology recording 18-36 hours after transfection.
(§2) Electrophysiology recordings from HEK293 cells were performed as described previously. Briefly, whole-cell patch-clamp recordings of GABA-evoked currents were made at 30 °C with the holding potential of -60 mV. The internal solution (solution in recording electrodes) contained (in mM): 120 CsCl, 10 EGTA, 10 HEPES, 4 MgCl2, 0.5 GTP, 2 ATP and pH was adjusted to 7.4 with CsOH and the external solution contained (in mM): 150 NaCl, 10 KCl, 2 CaCl2, 1 MgCl, 10 HEPES, 10 Glucose and pH was adjusted to 7.4 with NaOH. ACSF was bubbled continuously with carbogen (95%O2 and 5%CO2). For the recording of GABA-evoked currents, the slides were transferred to a recording chamber, which was perfused with ACSF at a rate of 4 ml/min. The cells were viewed under upright microscopy (Olympus), and GFP-positive cells were selected to record the currents. The interval time between each different dose of GABA was controlled, 3 to 5 minutes to avoid the desensitization of GABAARs.

[2] = target: T2, PSD-95-nNOS complex (Rattus norvegicus, UniProt P29476); test: Co-IP of PSD-95-nNOS complex levels in the spinal dorsal horn after SNL; assay type: in vivo; details: SNL rats, 60 mg/kg/d, i.g., 3 d
T2 construct: dorsal spinal cord tissues (L4 and L5) were lysed in 400 μl RIPA; from tissue; host or cells: rat dorsal spinal cord (L4 and L5), SNL model
T2 sequence (P29476 whole entry, one chain of several): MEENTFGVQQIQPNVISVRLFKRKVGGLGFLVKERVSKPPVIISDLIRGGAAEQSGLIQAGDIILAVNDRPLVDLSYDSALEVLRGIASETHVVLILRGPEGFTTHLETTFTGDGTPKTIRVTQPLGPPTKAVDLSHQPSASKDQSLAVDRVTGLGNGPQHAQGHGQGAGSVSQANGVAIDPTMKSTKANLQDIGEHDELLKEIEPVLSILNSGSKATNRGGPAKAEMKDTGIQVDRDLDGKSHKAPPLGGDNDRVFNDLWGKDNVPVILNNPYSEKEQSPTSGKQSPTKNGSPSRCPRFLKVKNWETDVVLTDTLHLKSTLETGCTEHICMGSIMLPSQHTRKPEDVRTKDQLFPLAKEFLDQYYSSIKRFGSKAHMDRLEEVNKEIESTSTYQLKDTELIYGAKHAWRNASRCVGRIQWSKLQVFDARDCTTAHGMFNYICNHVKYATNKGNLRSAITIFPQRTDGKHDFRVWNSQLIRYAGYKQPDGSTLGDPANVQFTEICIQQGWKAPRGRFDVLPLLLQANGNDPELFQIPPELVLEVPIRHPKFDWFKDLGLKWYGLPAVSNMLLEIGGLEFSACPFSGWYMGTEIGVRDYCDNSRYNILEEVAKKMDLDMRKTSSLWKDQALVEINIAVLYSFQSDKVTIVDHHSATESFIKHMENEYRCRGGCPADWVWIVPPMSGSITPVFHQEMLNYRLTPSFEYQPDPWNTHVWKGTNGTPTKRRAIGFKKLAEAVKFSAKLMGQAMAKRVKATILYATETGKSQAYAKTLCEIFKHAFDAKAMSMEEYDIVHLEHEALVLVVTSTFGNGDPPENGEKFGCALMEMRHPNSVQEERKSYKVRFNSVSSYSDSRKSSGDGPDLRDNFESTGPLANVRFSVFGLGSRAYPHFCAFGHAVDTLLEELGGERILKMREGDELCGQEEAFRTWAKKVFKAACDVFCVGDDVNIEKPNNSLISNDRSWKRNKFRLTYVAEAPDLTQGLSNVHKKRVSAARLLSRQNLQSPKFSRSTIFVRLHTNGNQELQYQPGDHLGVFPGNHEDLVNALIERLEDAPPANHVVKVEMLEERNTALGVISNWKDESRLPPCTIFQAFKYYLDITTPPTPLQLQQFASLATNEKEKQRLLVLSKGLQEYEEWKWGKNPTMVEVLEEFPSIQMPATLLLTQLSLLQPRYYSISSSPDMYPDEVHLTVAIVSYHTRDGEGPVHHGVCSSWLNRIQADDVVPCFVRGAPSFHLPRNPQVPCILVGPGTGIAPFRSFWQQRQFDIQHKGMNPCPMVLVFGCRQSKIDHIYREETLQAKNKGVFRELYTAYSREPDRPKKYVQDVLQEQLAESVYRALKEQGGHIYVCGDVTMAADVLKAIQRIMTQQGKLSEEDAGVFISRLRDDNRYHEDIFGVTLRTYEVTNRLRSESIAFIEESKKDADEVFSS

[3] = test system: SNL-induced mechanical hyperalgesia; test: SNL-induced mechanical hyperalgesia, paw withdrawal threshold; assay type: in vivo, rat; details: SNL rats, 60 mg/kg/d, i.g., 11 d
Method: (§3) Neuropathic pain was induced by segmental spinal nerve ligation (SNL). Animals were anesthetized with isoflurane. After the loss of righting reflex, the animal was fixed in the prone position. The SNL model was prepared as described previously: a median skin incision with about 3-5 cm length in L4-S2 level of the mouse back was made, the muscles next to the vertebrae till the sixth lumbar protruding were separated, the L5/L6 joint protruding on the right side was exposed and excised, and L6 processus transversus was partially split so that the L4-L6 spinal nerves on the right side were exposed. L5 nerve was gently isolated and tightly ligated with 5-0 silk thread. The wound was closed with 4-0 silk thread suture and covered with iodine solution. After nerve ligation, animals with signs of paw clonus or autotomy were excluded from further experiments.
Osmotic minipumps (models 1004 for mouse and 2ML4 for rat; Alzet) and intrathecal cannulas (0.61 mm outer diameter and 0.28 mm inner diameter for mouse, 0.99 mm outer diameter and 0.58 mm inner diameter for rat) were filled with a solution of PBS. Cannulas were inserted into the subarachnoid space through the space between the L5 and L6 vertebrae and the tip of the catheter was implanted at the L5 spinal segmental level.
For rats, the threshold for 50% paw withdrawal (50% PWT) response to mechanical stimulus was assessed through a dynamic plantar apparatus (Ugo Basile, Italy). The 50% PWT refers to that the probability of paw withdrawal response to repeated mechanical stimulus is 50%. Rats were placed individually in a plastic cage (17 × 15 × 15 cm) with a wire mesh bottom which allowed full access to the paws. Behavioral accommodation was allowed for 15-20 min until cage exploration and major grooming activities ceased. A maximal cut-off of 50g/50s was set to prevent tissue damage. To record the PWT in response to mechanical stimulus, each rat was measured five times with a 5-min interval, and the mean value was recorded after excluding maximal and minimum values. The experimental procedures were performed in a double-blind manner.

[4] = target: T3, α1β2γ2 GABAARs (Homo sapiens, UniProt P14867+P18507+P47870); test: Potentiation of GABA-evoked currents, whole-cell patch-clamp in HEK293 cells transiently expressing recombinant GABAARs; assay type: cell-based; details: α1β2γ2, n = 8
T3 construct: Shanghai Genechem Co.,Ltd (γ2 plasmid); host or cells: HEK293
T3 sequence (P14867 28-456): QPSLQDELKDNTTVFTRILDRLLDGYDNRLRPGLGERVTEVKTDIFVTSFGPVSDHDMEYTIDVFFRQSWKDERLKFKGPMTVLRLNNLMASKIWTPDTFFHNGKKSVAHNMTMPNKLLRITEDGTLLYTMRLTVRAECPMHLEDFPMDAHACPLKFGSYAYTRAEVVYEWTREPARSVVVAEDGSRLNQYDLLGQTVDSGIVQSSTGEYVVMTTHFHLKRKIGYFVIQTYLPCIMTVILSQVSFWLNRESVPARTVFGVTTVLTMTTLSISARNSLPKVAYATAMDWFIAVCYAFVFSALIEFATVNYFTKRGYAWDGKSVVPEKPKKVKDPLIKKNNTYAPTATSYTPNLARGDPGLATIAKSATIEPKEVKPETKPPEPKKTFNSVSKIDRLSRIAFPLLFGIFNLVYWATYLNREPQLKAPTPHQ
T3 sequence (P47870 25-512 limits assumed): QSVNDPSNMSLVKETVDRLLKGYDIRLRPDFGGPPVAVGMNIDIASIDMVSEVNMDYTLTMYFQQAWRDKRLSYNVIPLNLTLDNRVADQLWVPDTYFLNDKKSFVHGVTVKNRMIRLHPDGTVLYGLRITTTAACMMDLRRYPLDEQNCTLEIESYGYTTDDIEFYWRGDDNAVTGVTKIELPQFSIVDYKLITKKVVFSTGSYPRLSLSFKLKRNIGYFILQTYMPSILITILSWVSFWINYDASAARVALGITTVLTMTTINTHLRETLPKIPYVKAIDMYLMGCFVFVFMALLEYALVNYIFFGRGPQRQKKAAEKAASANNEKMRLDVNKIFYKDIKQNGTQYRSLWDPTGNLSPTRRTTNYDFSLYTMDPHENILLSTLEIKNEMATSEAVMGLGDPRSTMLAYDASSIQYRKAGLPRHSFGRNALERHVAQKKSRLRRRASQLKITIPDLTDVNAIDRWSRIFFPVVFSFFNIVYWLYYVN
T3 sequence (P18507 40-475): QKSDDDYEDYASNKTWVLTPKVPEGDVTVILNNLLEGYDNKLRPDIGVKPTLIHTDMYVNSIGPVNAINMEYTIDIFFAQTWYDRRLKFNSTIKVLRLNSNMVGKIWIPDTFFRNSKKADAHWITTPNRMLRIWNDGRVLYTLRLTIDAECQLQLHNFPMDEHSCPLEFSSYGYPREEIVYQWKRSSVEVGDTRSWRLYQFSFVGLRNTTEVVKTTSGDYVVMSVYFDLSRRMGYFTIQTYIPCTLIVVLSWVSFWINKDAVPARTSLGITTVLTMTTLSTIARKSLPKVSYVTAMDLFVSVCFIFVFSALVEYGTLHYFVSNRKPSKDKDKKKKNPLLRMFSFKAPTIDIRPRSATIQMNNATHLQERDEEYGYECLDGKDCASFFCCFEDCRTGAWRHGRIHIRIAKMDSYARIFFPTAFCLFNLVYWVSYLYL
Method: as §1, §2

[5] = target: T4, α3β3γ2 GABAARs (Homo sapiens, UniProt P18507+P28472+P34903); test: as above; assay type: cell-based; details: α3β3γ2, n = 8
T4 construct: Shanghai Genechem Co.,Ltd (γ2 plasmid); host or cells: HEK293
T4 sequence (P34903 29-492): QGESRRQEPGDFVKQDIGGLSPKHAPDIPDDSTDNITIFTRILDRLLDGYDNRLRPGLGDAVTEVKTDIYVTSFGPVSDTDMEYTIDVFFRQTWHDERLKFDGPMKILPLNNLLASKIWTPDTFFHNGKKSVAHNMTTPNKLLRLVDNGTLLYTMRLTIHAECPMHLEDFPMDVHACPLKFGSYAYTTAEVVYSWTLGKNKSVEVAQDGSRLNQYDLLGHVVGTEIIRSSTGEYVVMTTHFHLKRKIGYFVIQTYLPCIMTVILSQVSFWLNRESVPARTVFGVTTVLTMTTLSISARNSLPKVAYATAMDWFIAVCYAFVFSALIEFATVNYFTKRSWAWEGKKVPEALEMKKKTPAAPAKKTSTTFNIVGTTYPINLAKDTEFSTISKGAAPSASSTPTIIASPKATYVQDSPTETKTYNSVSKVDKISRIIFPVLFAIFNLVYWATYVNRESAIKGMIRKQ
T4 sequence (P28472 26-473): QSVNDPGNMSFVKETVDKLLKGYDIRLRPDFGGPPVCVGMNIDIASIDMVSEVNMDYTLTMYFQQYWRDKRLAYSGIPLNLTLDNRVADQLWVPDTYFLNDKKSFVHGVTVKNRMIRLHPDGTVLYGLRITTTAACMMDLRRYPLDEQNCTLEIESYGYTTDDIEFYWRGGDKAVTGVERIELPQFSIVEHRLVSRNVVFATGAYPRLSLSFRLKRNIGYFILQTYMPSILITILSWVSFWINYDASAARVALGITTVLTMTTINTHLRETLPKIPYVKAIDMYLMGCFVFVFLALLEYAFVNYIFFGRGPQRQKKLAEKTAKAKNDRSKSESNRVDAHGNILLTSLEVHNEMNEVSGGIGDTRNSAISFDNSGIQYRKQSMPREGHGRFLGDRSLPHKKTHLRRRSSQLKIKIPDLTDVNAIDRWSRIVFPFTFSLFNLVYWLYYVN
T4 sequence (P18507 40-475): as the sequence (P18507 40-475) above
Method: as §1, §2

[6] = test system: locomotor activity; test: Open field test, locomotor activity; assay type: in vivo; details: mice, 1 h after injection, ZL006-05 60 mg/kg, i.v., diazepam 0.5 mg/kg
Method: The locomotor activity was assessed by the open field test as described previously. The apparatus consisted of a large area composed of plastic, surrounded by walls that were 100 cm high. The floor was 50 × 50 cm for mice; the overall illumination was 25 lux. Each animal was gently placed in the center of the open field, and its behavior was videotaped. The distance the animals travelled was measured in a 5-min session using ANY-maze (Stoelting Co., IL, USA). After each trial, the plate was cleaned with 70% EtOH. No stressor was applied to the animals for at least 12 h before the test.

[7] = test system: motor coordination; test: Rotarod test, motor coordination; assay type: in vivo; details: rats, 30 min after injection, ZL006-05 60 mg/kg, i.v., diazepam 0.5 mg/kg
[8] = test system: SNL-induced mechanical hyperalgesia; test: SNL-induced mechanical hyperalgesia, von Frey; assay type: in vivo, mice; details: SNL mice, ZL006-05 60 mg/kg/d, i.g., × 28 d; pregabalin 30 mg/kg/d
Method: as §3
For mice, the threshold for 50% PWT response to mechanical stimulus was quantified by assessing the paw withdrawal threshold using von Frey filaments (Touch-Test TM Sensory Evaluator, North coast Medical, Inc.). Mice were placed individually in a plastic cage (4.5 × 5 × 11 cm) with a wire mesh bottom which allowed full access to the paws. Behavioral accommodation was allowed for 20-30 min until cage exploration and major grooming activities ceased. Mechanical threshold was measured by applying a von Frey filament to the ventral surface of the right hind paw until a positive sign of pain behavior was elicited. The paradigm for assessing the threshold was as follows. Von Frey filaments with logarithmically incremental stiffness (0.02-2 g) were applied serially to the paw by the up-down method. The filaments were presented, in ascending order of strength, perpendicular to the plantar surface with sufficient force to causes light bending against the paw and held for 4s. A positive response was noted if the paw was sharply withdrawn. Flinching immediately upon removal of the hair was also considered a positive response. The 2-g filament was selected as the upper limit cut-off for testing. If there was no response at 2-g filament, animals were assigned this cut-off value. The pattern of positive and negative withdrawal responses was converted to 50% threshold according to the formula: 50% PWT = 10 log (X) + κδ. X = value (in log unit) of the final von Frey hair used; κ is correction factors based on the pattern of responses from the calibration table; δ = mean difference in log units between stimuli (here, 0.224).

[9] = test system: spatial memory; test: Morris water maze task; assay type: in vivo; details: rats; ZL006-05 90 mg/kg/d, i.g.; MK801 0.25 mg/kg/d, i.v.; 6 days
Method: The Morris water maze task was used to exam spatial cognitive performance of rats. A circular swimming pool (Jiliang Neuroscience Inc.) measuring 180 cm in diameter and 48 cm in height was filled with water to a depth of 26 cm at 24 ± 2 °C. Four starting points around the edge of the pool were designated as N, E, S, and W, which divided the pool into four quadrants. A platform, 10 cm in diameter, was located in a constant position in the middle of one quadrant. To render it invisible to the rats, platform was submerged 2.0 cm below the surface of the water. The task for the rats was to escape from the water by locating the hidden platform. Two days before training, the animals were habituated to swimming for 60 s in the pool without a platform. In training session, rats were trained to escape from the water by locating the platform which was above the water with a red flag on it. Then, one block of four trails was given for 6 consecutive days, and on each day, two groups of rats were administrated with MK801 (0.25 mg/kg, i.v.) or vehicle (6 mL/kg, i.v.) 30 minutes before the first trail. Meanwhile, another two groups of rats were treated with ZL006-05 (90 mg/kg, i.g.) or vehicle (6 mL/kg, i.g.) 1 hour before the first trail. […] During retention, the number of crossings of the platform location and the time spent in the target quadrant were measured.

[10] = test system: neuropathic pain; parameters: method as in PMID 32632774; details: treatment of neuropathic pain, chronic use; cited from earlier work

T1 sequence (P47869 29-451): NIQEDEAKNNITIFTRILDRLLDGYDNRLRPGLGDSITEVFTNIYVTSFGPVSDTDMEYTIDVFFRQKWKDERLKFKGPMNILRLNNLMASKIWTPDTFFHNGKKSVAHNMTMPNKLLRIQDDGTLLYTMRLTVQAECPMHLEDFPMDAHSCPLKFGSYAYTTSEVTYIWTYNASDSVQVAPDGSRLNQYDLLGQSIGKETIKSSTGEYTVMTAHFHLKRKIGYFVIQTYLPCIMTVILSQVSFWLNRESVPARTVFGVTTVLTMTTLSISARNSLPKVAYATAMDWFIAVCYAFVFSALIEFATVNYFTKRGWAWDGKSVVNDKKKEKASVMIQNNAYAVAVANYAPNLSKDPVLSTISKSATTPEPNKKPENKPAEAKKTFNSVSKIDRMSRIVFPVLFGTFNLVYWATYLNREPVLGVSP
T1 sequence (P28472 26-473): as the sequence (P28472 26-473) above
T1 sequence (P18507 40-475): as the sequence (P18507 40-475) above

## CC1(C)C2CCC1(C)C(OC(=O)c1ccc(NCc3ccccc3O)cc1O)C2 (centres unmarked) [ZL006-05B]
[1]; α2β3γ2, n = 8
  EC50: 2.834 ± 0.0033 nM
  Emax: 104 ± 21.9%
[2]
  PSD-95-nNOS complex level in the SDH: without ability to target PSD-95-nNOS
[3]
  Analgesic tolerance, mechanical hyperalgesia: caused substantial analgesic tolerance

## CN1C(=O)CN=C(c2ccccc2)c2cc(Cl)ccc21 [diazepam]
[4]
  Emax: 109 ± 18.5%
[1]; α2β3γ2, n = 8
  Emax: 118 ± 16.4%
[5]
  Emax: 113 ± 8.58%
[6]
  Locomotor activity, distance travelled during 5 min: reduced the locomotor activity of mice in the open-field test
[7]
  Motor coordination, time spent on the accelerating rotarod: shortened the time for rats to fall off an accelerating rotarod significantly

## O=C(OC1CCCCC1)c1ccc(NCc2cc(Cl)cc(Cl)c2O)cc1O [ZL006-05A]
[1]; α2β3γ2
  Effect on α2-containing GABAAR (in words): without ability to target α2-containing GABAAR
[3]
  Analgesic tolerance, mechanical hyperalgesia: caused substantial analgesic tolerance

## CC(C)C[C@H](CN)CC(=O)O [pregabalin]
[8]
  Analgesic tolerance, mechanical hyperalgesia, 28 days treatment: caused a severe analgesic tolerance

## C[C@]12N[C@H](Cc3ccccc31)c1ccccc12 [MK801]
[9]
  Spatial memory in the Morris water maze task: caused significantly impaired spatial memory
[10]
  Analgesic tolerance when used chronically: cause obvious analgesic tolerance
